The record followed here is PMC10855341, “Inhibition of Apoptosis in a Model of Ischemic Stroke Leads to Enhanced Cell Survival, Endogenous Neural Precursor Cell Activation and Improved Functional Outcomes” (International Journal of Molecular Sciences, 2024).

In the assay the test system is neural precursor cells (NPCs) from SVZ neurospheres. The assay is described as follows: In vitro NPC cell viability with cisplatin (DAPI+ counts). Particulars: 20 µM cisplatin alone, 8 h; mean ± SEM, n = 3 independent experiments. The assay is classed as cell-based, adult mice (C57BL/6). How it is done: NSC neurospheres were obtained from control […] C57BL/6 periventricular dissections, as described above. Neurospheres were collected and mechanically disassociated into single cells and plated in 96-well plates coated with 4% Matrigel (Corning 354234, Corning, NY, USA) at a density of 20,000 cells per well in 100 µL of SFM with […] epidermal growth factor (GIBCO, PMG8041, Waltham, MA, USA), […] basic fibroblast growth factor (GIBCO, PHG0266, Waltham, MA, USA) and 2 µg/mL heparin (Sigma-Aldrich, H3149, St. Louis, MO, USA) (referred to as growth factors). One day later, the media was removed and replaced with fresh SFM, growth factors, 20 µM cisplatin (Sigma-Aldrich, P4394, St. Louis, MO, USA) and 10 µM NWL283 (New World Laboratories, Laval, QC, Canada) in sterile PBS. The vehicle group received media containing SFM, growth factors and PBS.
To assess cell viability at 2 h and 8 h, cells were fixed with 4% PFA for 15 min and washed three times for 5 min in PBS. Cells were incubated for 10 min with 1:10,000 DAPI (Invitrogen, D130, Waltham, MA, USA), then washed three times for 5 min in PBS and imaged on an Axio Observer Zeiss microscope. DAPI cells were counted using ImageJ (https://imagej.net/ij/) analyze particle detection and then manually confirmed. Data were collected from three independent experiments.

On to `N.N.[Cl][Pt][Cl]` [cisplatin], for which the “cell survival, DAPI+ cells” value came out at 49.09 ± 7.28 DAPI+ cells.
